# Measured values taken from patent publication US6992169B2, “Carrier based drug delivery system” (Cyclacel Limited, priority 1998, dated 2006).
# Assays:
# HaCaT cells = assay: In vitro cytotoxic activity, inhibition of cell proliferation, ATP bioluminescence (ViaLight); type: cell-based, human
# Method: (§1) This compound (abbreviated ‘MTX-Pen’ in the tables below) was evaluated for its ability to inhibit cell proliferation of normal (immortalised) human cells (HaCaT cells, Tables 1 & 2) and a human colorectal cancer cell line (HT29, Table 3).
# (§2) Assay procedure—Cells were seeded into 96-well plates at 2,500 cells/well in DMEM with 10% FCS and antibiotics. After overnight incubation, test compound dilutions in cell medium were prepared and were added to the cells. Samples were taken 1, 2, 3, and 4 days after compound addition. Nucleotide Releasing Reagent (LumiTech ViaLight kit) was added in order to lyse the cells and release ATP. After incubation at room temperature (5 min), the mixtures were transferred to opaque 96-well plates and stored at −20° C. until analysis. After loading plates into a luminometer (Lucy 1, Labtech International), ATP Monitoring Reagent (20 μL/well, LumiTech ViaLight kit) was added to each well successively and light intensity was measured immediately. Six readings were taken per sample. Each assay point was established using six replicates and appropriate controls. […] Statistically significant results in the tables below are printed in bold face.
# (§3) This compound (abbreviated ‘MTX-Pen’ in tables below) was evaluated for its ability to inhibit cell proliferation of normal (immortalised) human cells (HaCaT cells, Tables 1 & 2) and a human colorectal cancer cell line (HT29, Table 3).
# (§4) Assay procedure—Cells were seeded into 96-well plates at 2,500 cells/well in DMEM with 10% foetal calf serum and antibiotics. After overnight incubation, test compound dilutions in cell medium were prepared and were added to the cells. Samples were taken 1, 2, 3, and 4 days after compound addition. Nucleotide Releasing Reagent (LumiTech ViaLight kit) was added in order to lyse the cells and release ATP. After incubation at room temperature (5 min), the mixtures were transferred to opaque 96-well plates and stored at −20° C. until analysis. After loading plates into a luminometer (Lucy 1, Labtech International), ATP Monitoring Reagent ([…], LumiTech ViaLight kit) was added to each well successively and light intensity was measured immediately. Six readings were taken per sample. Each assay point was established using six replicates and appropriate controls.
# HT29 = assay: as above; type: cell-based, human
# Method: as §1, §2, §3, §4
structure (smiles),measurement,setting,value
"CN(Cc1cnc2nc(N)nc(N)c2n1)c1ccc(C(=O)N[C@@H](CCC(=O)O)C(=O)O)cc1 [MTX, methotrexate]",% Cell Death,"HaCaT cells; Table 1, HaCaT, Dose 0.2 μM, Day 1",7%
same,% Cell Death,"HaCaT cells; Table 1, HaCaT, Dose 0.2 μM, Day 2",11%
same,% Cell Death,"HaCaT cells; Table 1, HaCaT, Dose 0.2 μM, Day 3",79%
same,% Cell Death,"HaCaT cells; Table 1, HaCaT, Dose 0.2 μM, Day 4",93%
same,% Cell Death,"HaCaT cells; Table 1, HaCaT, Dose 0.5 μM, Day 1",−4%
same,% Cell Death,"HaCaT cells; Table 1, HaCaT, Dose 0.5 μM, Day 2",31%
same,% Cell Death,"HaCaT cells; Table 1, HaCaT, Dose 0.5 μM, Day 3",75%
same,% Cell Death,"HaCaT cells; Table 1, HaCaT, Dose 0.5 μM, Day 4",93%
same,% Cell Death,"HaCaT cells; Table 1, HaCaT, Dose 1.5 μM, Day 1",13%
same,% Cell Death,"HaCaT cells; Table 1, HaCaT, Dose 1.5 μM, Day 2",31%
same,% Cell Death,"HaCaT cells; Table 1, HaCaT, Dose 1.5 μM, Day 3",77%
same,% Cell Death,"HaCaT cells; Table 1, HaCaT, Dose 1.5 μM, Day 4",94%
same,% Cell Death,"HaCaT cells; Table 1, HaCaT, Dose 4.4 μM, Day 1",4%
same,% Cell Death,"HaCaT cells; Table 1, HaCaT, Dose 4.4 μM, Day 2",24%
same,% Cell Death,"HaCaT cells; Table 1, HaCaT, Dose 4.4 μM, Day 3",77%
same,% Cell Death,"HaCaT cells; Table 1, HaCaT, Dose 4.4 μM, Day 4",93%
same,% Cell Death,"HaCaT cells; Table 1, HaCaT, Dose 13.3 μM, Day 1",22%
same,% Cell Death,"HaCaT cells; Table 1, HaCaT, Dose 13.3 μM, Day 2",35%
same,% Cell Death,"HaCaT cells; Table 1, HaCaT, Dose 13.3 μM, Day 3",82%
same,% Cell Death,"HaCaT cells; Table 1, HaCaT, Dose 13.3 μM, Day 4",92%
same,% Cell Death,"HaCaT cells; Table 1, HaCaT, Dose 40.0 μM, Day 1",4%
same,% Cell Death,"HaCaT cells; Table 1, HaCaT, Dose 40.0 μM, Day 2",15%
same,% Cell Death,"HaCaT cells; Table 1, HaCaT, Dose 40.0 μM, Day 3",79%
same,% Cell Death,"HaCaT cells; Table 1, HaCaT, Dose 40.0 μM, Day 4",92%
same,% Cell Death,"HaCaT cells; Table 2, HaCaT, Dose 0.1 μM, Day 1",19%
same,% Cell Death,"HaCaT cells; Table 2, HaCaT, Dose 0.1 μM, Day 2",7%
same,% Cell Death,"HaCaT cells; Table 2, HaCaT, Dose 0.1 μM, Day 3",45%
same,% Cell Death,"HaCaT cells; Table 2, HaCaT, Dose 0.1 μM, Day 4",65%
same,% Cell Death,"HaCaT cells; Table 2, HaCaT, Dose 0.2 μM, Day 1",3%
same,% Cell Death,"HaCaT cells; Table 2, HaCaT, Dose 0.2 μM, Day 2",41%
same,% Cell Death,"HaCaT cells; Table 2, HaCaT, Dose 0.2 μM, Day 3",94%
same,% Cell Death,"HaCaT cells; Table 2, HaCaT, Dose 0.2 μM, Day 4",86%
same,% Cell Death,"HaCaT cells; Table 2, HaCaT, Dose 0.5 μM, Day 1",0%
same,% Cell Death,"HaCaT cells; Table 2, HaCaT, Dose 0.5 μM, Day 2",59%
same,% Cell Death,"HaCaT cells; Table 2, HaCaT, Dose 0.5 μM, Day 3",96%
same,% Cell Death,"HaCaT cells; Table 2, HaCaT, Dose 0.5 μM, Day 4",91%
same,% Cell Death,"HaCaT cells; Table 2, HaCaT, Dose 1.5 μM, Day 1",14%
same,% Cell Death,"HaCaT cells; Table 2, HaCaT, Dose 1.5 μM, Day 2",67%
same,% Cell Death,"HaCaT cells; Table 2, HaCaT, Dose 1.5 μM, Day 3",96%
same,% Cell Death,"HaCaT cells; Table 2, HaCaT, Dose 1.5 μM, Day 4",91%
same,% Cell Death,"HaCaT cells; Table 2, HaCaT, Dose 4.4 μM, Day 1",21%
same,% Cell Death,"HaCaT cells; Table 2, HaCaT, Dose 4.4 μM, Day 2",70%
same,% Cell Death,"HaCaT cells; Table 2, HaCaT, Dose 4.4 μM, Day 3",97%
same,% Cell Death,"HaCaT cells; Table 2, HaCaT, Dose 4.4 μM, Day 4",92%
same,% Cell Death,"HT29; Table 3, HT 29, Dose 0.1 μM, Day 1",6%
same,% Cell Death,"HT29; Table 3, HT 29, Dose 0.1 μM, Day 2",−17%
same,% Cell Death,"HT29; Table 3, HT 29, Dose 0.1 μM, Day 3",52%
same,% Cell Death,"HT29; Table 3, HT 29, Dose 0.1 μM, Day 4",84%
same,% Cell Death,"HT29; Table 3, HT 29, Dose 0.2 μM, Day 1",10%
same,% Cell Death,"HT29; Table 3, HT 29, Dose 0.2 μM, Day 2",−5%
same,% Cell Death,"HT29; Table 3, HT 29, Dose 0.2 μM, Day 3",54%
same,% Cell Death,"HT29; Table 3, HT 29, Dose 0.2 μM, Day 4",85%
same,% Cell Death,"HT29; Table 3, HT 29, Dose 0.5 μM, Day 1",15%
same,% Cell Death,"HT29; Table 3, HT 29, Dose 0.5 μM, Day 2",−12%
same,% Cell Death,"HT29; Table 3, HT 29, Dose 0.5 μM, Day 3",52%
same,% Cell Death,"HT29; Table 3, HT 29, Dose 0.5 μM, Day 4",88%
same,% Cell Death,"HT29; Table 3, HT 29, Dose 1.5 μM, Day 1",17%
same,% Cell Death,"HT29; Table 3, HT 29, Dose 1.5 μM, Day 2",−5%
same,% Cell Death,"HT29; Table 3, HT 29, Dose 1.5 μM, Day 3",48%
same,% Cell Death,"HT29; Table 3, HT 29, Dose 1.5 μM, Day 4",84%
same,% Cell Death,"HT29; Table 3, HT 29, Dose 4.4 μM, Day 1",−14%
same,% Cell Death,"HT29; Table 3, HT 29, Dose 4.4 μM, Day 2",−4%
same,% Cell Death,"HT29; Table 3, HT 29, Dose 4.4 μM, Day 3",58%
same,% Cell Death,"HT29; Table 3, HT 29, Dose 4.4 μM, Day 4",86%
